In publication PMC11012124, “Synthesis of Novel Triazine-Based Chalcones and 8,9-dihydro-7H-pyrimido[4,5-b][1,4]diazepines as Potential Leads in the Search of Anticancer, Antibacterial and Antifungal Agents” (International Journal of Molecular Sciences, 2024):

Assays:
[1] = Hemolytic activity, spectrophotometric; type: cell-based, human; settings: human, human red blood cells (huRBC), 5% hematocrit, 200 μg/mL, 37 °C
CCRF-CEM = assay: cells; settings: Homo sapiens, 48 h
HL-60(TB) = assay: cells; settings: Homo sapiens, HL-60, 48 h
K-562 = assay: cells; settings: Homo sapiens, K562, 48 h
EKVX = assay: cells; settings: Homo sapiens, 48 h
HOP-62 = assay: cells; settings: Homo sapiens, HOP-62, 48 h
NCI-H322M = assay: cells; settings: Homo sapiens, 48 h
NCI-H460 = assay: cells; settings: Homo sapiens, NCI-H460, 48 h
COLO 205 = assay: cells; settings: Homo sapiens, COLO 205, 48 h
HCC-2998 = assay: cells; settings: Homo sapiens, HCC 2998, 48 h
HCT-15 = assay: cells; settings: Homo sapiens, HCT-15, 48 h
HT29 = assay: cells; settings: Homo sapiens, HT-29, 48 h
KM12 = assay: cells; settings: Homo sapiens, KM12, 48 h
SF-268 = assay: cells; settings: Homo sapiens, SF-268, 48 h
SF-295 = assay: cells; settings: Homo sapiens, SF-295, 48 h
SF-539 = assay: cells; settings: Homo sapiens, SF-539, 48 h
SNB-75 = assay: cells; settings: Homo sapiens, SNB-75, 48 h
MALME-3M = assay: cells; settings: Homo sapiens, 48 h
M14 = assay: cells; settings: Homo sapiens, M14, 48 h
SK-MEL-28 = assay: cells; settings: Homo sapiens, SK-MEL-28, 48 h
SK-MEL-5 = assay: cells; settings: Homo sapiens, SK-MEL-5, 48 h
UACC-257 = assay: cells; settings: Homo sapiens, UACC-257, 48 h
UACC-62 = assay: cells; settings: Homo sapiens, UACC-62, 48 h
OVCAR-3 = assay: cells; settings: Homo sapiens, OVCAR-3, 48 h
OVCAR-4 = assay: cells; settings: Homo sapiens, OVCAR-4, 48 h
OVCAR-5 = assay: cells; settings: Homo sapiens, OVCAR-5, 48 h
OVCAR-8 = assay: cells; settings: Homo sapiens, OVCAR-8, 48 h
SK-OV-3 = assay: cells; settings: Homo sapiens, SK-OV-3, 48 h
786-0 = assay: cells; settings: Homo sapiens, 786-0, 48 h
A498 = assay: cells; settings: Homo sapiens, A498, 48 h
CAKI-1 = assay: cells; settings: Homo sapiens, CAKI-1, 48 h
RXF 393 = assay: cells; settings: Homo sapiens, RXF 393, 48 h
SN12C = assay: cells; settings: Homo sapiens, 48 h
TK-10 = assay: cells; settings: Homo sapiens, TK-10, 48 h
UO-31 = assay: cells; settings: Homo sapiens, UO-31, 48 h
MCF7 = assay: cells; settings: Homo sapiens, MCF7, 48 h
HS 578T = assay: cells; settings: Homo sapiens, 48 h
MDA-MB-468 = assay: cells; settings: Homo sapiens, MDA-MB-468, 48 h

## CN(C)c1nc(NCCNS(=O)(=O)c2ccc(C(=O)/C=C/c3ccc(F)cc3)cc2)nc(Nc2ccc(F)cc2)n1 [24f]
[1]
  hemolysis at 24 h, 200 µg/mL: 9.9%
CCRF-CEM
  GI50: 3.42 µM
CCRF-CEM; read-out: LC50
  CC50: > 100 µM
HL-60(TB)
  GI50: 2.04 µM
HL-60(TB); read-out: LC50
  CC50: 6.34 µM
K-562; K-562, 48 h
  GI50: 2.42 µM
K-562; read-out: LC50
  CC50: 6.79 µM
EKVX
  GI50: 2.95 µM
EKVX; read-out: LC50
  CC50: 10.9 µM
HOP-62
  GI50: 8.39 µM
HOP-62; read-out: LC50
  CC50: 23.5 µM
NCI-H322M
  GI50: 4.24 µM
NCI-H322M; read-out: LC50
  CC50: 17.8 µM
NCI-H460
  GI50: 2.45 µM
NCI-H460; read-out: LC50
  CC50: 6.93 µM
COLO 205
  GI50: 2.38 µM
COLO 205; read-out: LC50
  CC50: 6.56 µM
HCC-2998
  GI50: 1.8 µM
HCC-2998; read-out: LC50
  CC50: 3.45 µM
HCT-15
  GI50: 1.99 µM
HCT-15; read-out: LC50
  CC50: 4.28 µM
HT29
  GI50: 1.9 µM
HT29; read-out: LC50
  CC50: 3.65 µM
KM12
  GI50: 2 µM
KM12; read-out: LC50
  CC50: 4.41 µM
SF-268
  GI50: 3.89 µM
SF-268; read-out: LC50
  CC50: 16.4 µM
SF-295
  GI50: 3.4 µM
SF-295; read-out: LC50
  CC50: 13 µM
SF-539
  GI50: 2.52 µM
SF-539; read-out: LC50, SF-539, 48 h
  CC50: 6.78 µM
SNB-75
  GI50: 2.88 µM
SNB-75; read-out: LC50
  CC50: 16 µM
MALME-3M
  GI50: 3.42 µM
MALME-3M; read-out: LC50
  CC50: 12.4 µM
M14
  GI50: 2.6 µM
M14; read-out: LC50
  CC50: 8.28 µM
SK-MEL-28
  GI50: 3.6 µM
SK-MEL-28; read-out: LC50
  CC50: 13.7 µM
SK-MEL-5
  GI50: 2.91 µM
SK-MEL-5; read-out: LC50
  CC50: 11.1 µM
UACC-257
  GI50: 3.61 µM
UACC-257; read-out: LC50
  CC50: 15.2 µM
UACC-62
  GI50: 3.57 µM
UACC-62; read-out: LC50
  CC50: 14.6 µM
OVCAR-3
  GI50: 1.74 µM
OVCAR-3; read-out: LC50
  CC50: 3.24 µM
OVCAR-4
  GI50: 3.68 µM
OVCAR-4; read-out: LC50
  CC50: 15.6 µM
OVCAR-5
  GI50: 3.39 µM
OVCAR-5; read-out: LC50
  CC50: 15 µM
OVCAR-8
  GI50: 3.42 µM
OVCAR-8; read-out: LC50
  CC50: 13.9 µM
SK-OV-3
  GI50: 8.23 µM
SK-OV-3; read-out: LC50
  CC50: 21.6 µM
786-0
  GI50: 2.56 µM
786-0; read-out: LC50
  CC50: 6.3 µM
A498
  GI50: 6.21 µM
A498; read-out: LC50
  CC50: 19.3 µM
CAKI-1
  GI50: 3.01 µM
CAKI-1; read-out: LC50
  CC50: 12.7 µM
RXF 393
  GI50: 2.26 µM
RXF 393; read-out: LC50
  CC50: 7.51 µM
SN12C
  GI50: 1.7 µM
SN12C; read-out: LC50
  CC50: 3.36 µM
TK-10
  GI50: 4.62 µM
TK-10; read-out: LC50
  CC50: 16.6 µM
UO-31
  GI50: 2.9 µM
UO-31; read-out: LC50
  CC50: 11.9 µM
MCF7
  GI50: 1.8 µM
MCF7; read-out: LC50
  CC50: 3.46 µM
HS 578T
  GI50: 6.3 µM
HS 578T; read-out: LC50
  CC50: 71.5 µM
MDA-MB-468
  GI50: 2.55 µM
MDA-MB-468; read-out: LC50
  CC50: 8.09 µM
